For this test, the system named is up-regulation of ICAM-1 (CD54) by IFNγ in U937 human monocytic cells. In words: U937 IFNγ ICAM1 FACS Assay. As to conditions: Homo sapiens, U-937, U937 cells stimulated with IFNγ, ICAM-1 expression by FACS; read-out: IC50, Example 44. In kind it is cell-based. Put shortly: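 Readout was the geometric-mean APC anti-ICAM-1 signal by FACS on live U937 monocytic cells, with % live cells also recorded. Cells were exposed to compounds (8 points, 3-fold dilutions, duplicates) for 30 min at 37 °C before 18–24 h of IFNγ stimulation. EC50 values were computed from the dose curve.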

On to `NS(=O)(=O)c1cccc(Nc2ncc(F)c(Nc3ccc(CCCCF)cc3)n2)c1` [VI-92, N2-(3-Aminosulfonylphenyl)-5-fluoro-N4-[4-(4-fluorobutyl)phenyl]-2,4-pyrimidinediamine], for which the half-maximal inhibitory concentration (IC50) is 1160 nM.

`NS(=O)(=O)c1cc(Nc2ncc(F)c(Nc3ccc(O)cc3)n2)ccc1F` [VI-100, N2-(3-Aminosulfonyl-4-fluorophenyl)-5-fluoro-N4-(4-hydroxyphenyl)-2,4-pyrimidinediamine]: the half-inhibitory concentration (IC50) was found to be 4900 nM. In the case of `Cc1ccc(Nc2ncc(F)c(Nc3ccc(O)cc3)n2)cc1S(N)(=O)=O` [VI-102, N2-(3-Aminosulfonyl-4-methylphenyl)-5-fluoro-N4-[4-hydroxyphenyl]-2,4-pyrimidinediamine] it was 2800 nM. For `COc1ccc(Nc2nc(Nc3cccc(S(N)(=O)=O)c3)ncc2F)cc1Cl` [VI-107, N2-(3-Aminosulfonylphenyl)-5-fluoro-N4-(4-methoxy-3-chlorophenyl]-2,4-pyrimidinediamine], the IC50 was determined as 856 nM. In the case of `NS(=O)(=O)c1cccc(Nc2ncc(F)c(Nc3ccc(Cl)c(Cl)c3)n2)c1` [VI-110, N2-(3-Aminosulfonylphenyl)-N4-(3,4-dichlorophenyl)-5-fluoro-2,4-pyrimidinediamine], the half-inhibitory concentration (IC50) came to 5460 nM. Regarding `Cc1ccc(Nc2ncc(F)c(Nc3ccc(C)c(S(N)(=O)=O)c3)n2)cc1S(N)(=O)=O` [VI-114, N2,N4-Bis-(3-aminosulfonyl-4-methylphenyl)-5-fluoro-2,4-pyrimidinediamine], the 50% inhibitory concentration (IC50) was 33200 nM. The value for `COc1ccc(Nc2nc(Nc3ccc(N4CCN(C)CC4)c(S(N)(=O)=O)c3)ncc2F)cc1Cl` [VI-116, N2-[3-Aminosulfonyl-4-(4-methylpiperazine-1-yl)phenyl]-N4-(3-chloro-4-methoxyphenyl)-5-fluoro-2,4-pyrimidinediamine] was 673 nM; that for `COc1ccc(Nc2nc(Nc3cccc(S(N)(=O)=O)c3)ncc2F)cn1` [VII-6, N2-(3-Aminosulfonylphenyl)-5-fluoro-N4-(2-methoxypyrid-5-yl)-2,4-pyrimidinediamine] was 3650 nM. The value for `COc1ccc(Nc2nc(Nc3ccc(C)c(S(N)(=O)=O)c3)ncc2F)nc1N` [VII-9, N2-(3-Aminosulfonyl-4-methylphenyl)-N4-[2-amino-3-methoxypyrid-6-yl]-5-fluoro-2,4-pyrimidinediamine] was 5350 nM; that for `CN1C(=O)C(C)(C)S(=O)(=O)c2ccc(Nc3nc(Nc4ccc(S(N)(=O)=O)cc4)ncc3F)cc21` [VII-12, N2-(4-Aminosulphonylphenyl)-5-fluoro-N4-(2,2,4-trimethyl-1,1,3-trioxo-benzo[1,4]thiazin-6-yl)-2,4-pyrimidinediamine] was 31800 nM. The value for `Cc1ccc(Nc2ncc(C)c(Nc3ccc4c(c3)NC(=O)CO4)n2)cc1S(N)(=O)=O` [VII-30, N2-(3-Aminosulphonyl-4-methylphenyl)-5-methyl-N4-(3-oxo-benz[1,4]oxazin-6-yl)-2,4-pyrimidinediamine] was 701 nM; that for `Cc1cnc(Nc2ccc(S(N)(=O)=O)cc2)nc1Nc1ccc2c(c1)NC(=O)CO2` [VII-31, N2-(4-Aminosulphonylphenyl)-5-methyl-N4-(3-oxo-benz[1,4]oxazin-6-yl)-2,4-pyrimidinediamine] was 7280 nM; that for `Cc1cnc(Nc2cccc(S(N)(=O)=O)c2)nc1Nc1ccc2c(c1)NC(=O)CO2` [VII-32, N2-(3-Aminosulphonylphenyl)-5-methyl-N4-(3-oxo-benz[1,4]oxazin-6-yl)-2,4-pyrimidinediamine] was 2060 nM.

Regarding `Cc1cnc(Nc2cccc(S(N)(=O)=O)c2)nc1Nc1ccc2c(c1)N(C)C(=O)CS2` [VII-35, N2-(3-Aminosulphonylphenyl)-5-methyl-N4-(4-methyl-3-oxo-benzo[1,4]thiazin-6-yl)-2,4-pyrimidinediamine], the half-inhibitory concentration (IC50) stood at 245 nM.

For the compound `Cc1ccc(Nc2ncc(F)c(Nc3ccc4c(c3)NC(=O)CS4)n2)cc1S(N)(=O)=O` [VII-44, N2-(3-Aminosulphonyl-4-methyl-phenyl)-5-fluoro-N4-(3-oxo-4H-benzo[1,4]thiazin-6-yl)-2,4-pyrimidinediamine], the half-maximal inhibitory concentration (IC50) stood at 1230 nM. In the case of `CN1C(=O)CSc2ccc(Nc3nc(Nc4ccc(S(N)(=O)=O)cc4)ncc3F)cc21` [VII-48, N2-(4-Aminosulfonylphenyl)-5-fluoro-N4-(4-methyl-3-oxo-benz[1,4]thiazin-6-yl)-2,4-pyrimidinediamine] it was 660 nM. The value for `CN1C(=O)CSc2ccc(Nc3nc(Nc4cccc(S(N)(=O)=O)c4)ncc3F)cc21` [VII-49, N2-(3-Aminosulfonylphenyl)-5-fluoro-N4-(4-methyl-3-oxo-benz[1,4]thiazin-6-yl)-2,4-pyrimidinediamine] was 577 nM; that for `NC(=O)c1cc2cc(Nc3nc(Nc4cccc(S(N)(=O)=O)c4)ncc3F)ccc2o1` [VII-54, N2-(3-Aminosulfonylphenyl)-N4-(2-aminocarbonylbenzofurane-5-yl)-5-fluoro-2,4-pyrimidinediamine] was 64600 nM. The value for `Cc1ccc(Nc2ncc(F)c(Nc3ccc4sccc4c3)n2)cc1S(N)(=O)=O` [VII-57, N2-(3-Aminosulfonyl-4-methylphenyl)-N4-(benzothiophen-5-yl)-5-fluoro-2,4-pyrimidinediamine] was 735 nM. Turning to `NS(=O)(=O)c1cccc(Nc2ncc(F)c(Nc3ccc4sccc4c3)n2)c1` [VII-58, N2-(3-Aminosulfonylphenyl)-N4-(benzothiophen-5-yl)-5-fluoro-2,4-pyrimidinediamine], the concentration for half-maximal inhibition (IC50) turned out to be 1100 nM.

`Cc1ccc(Nc2ncc(F)c(Nc3ccc4ncccc4c3)n2)cc1S(N)(=O)=O` [VII-69, N2-(3-Aminosulfonyl-4-methylphenyl)-5-fluoro-N4-(quinolin-6-yl)-2,4-pyrimidinediamine]: the half-maximal inhibitory concentration (IC50) stood at 990 nM. In the case of `NS(=O)(=O)c1cccc(Nc2ncc(F)c(Nc3ccc4ncccc4c3)n2)c1` [VII-70, N2-(3-Aminosulfonylphenyl)-5-fluoro-N4-(quinolin-6-yl)-2,4-pyrimidinediamine] it was 2760 nM. In the case of `Cc1ccc2cc(Nc3nc(Nc4cccc(S(N)(=O)=O)c4)ncc3F)ccc2n1` [VII-72, N2-(3-Aminosulfonylphenyl)-5-fluoro-N4-(2-methylquinolin-6-yl)-2,4-pyrimidinediamine] it was 1180 nM; in that of `Cc1ccc(Nc2ncc(F)c(Nc3cccc4cccnc34)n2)cc1S(N)(=O)=O` [VII-77, N2-(3-Aminosulfonyl-4-methylphenyl)-5-fluoro-N4-(quinolin-8-yl)-2,4-pyrimidinediamine], 3540 nM.

The values above are taken from patent US11827628B2, “Compositions and methods for inhibition of the JAK pathway” (Rigel Pharmaceuticals, Inc., priority 2005, dated 2023).
